Measurements as given in patent US20160046592A1, “PHARMACEUTICAL COMPOSITION FOR THE TREATMENT OF DIABETES” (Ajinomoto Co., Inc., priority 2013, published 2016).
Counter-ions that a name gives are not always drawn.

The compounds below were run on Rat skeletal muscle-derived L6 myoblasts (differentiated into myotube cells) (assay: Evaluation of glycogen accumulation in L6). Conditions: [14C] glycogen from D-[U-C14] glucose, 3 hours incubation, 100% = compound of Example 1 of WO/2011/058154 at 30 μM.
Assay type: cell-based
Description: The glycogen accumulation activity was evaluated in skeletal muscle cells according to the published article (ANALYTICAL BIOCHEMISTRY, Vol. 261: 159-163, 1998) by the following method. Rat skeletal muscle-derived L6 myoblasts (ATCC) were seeded in a 96-well collagen-coated plate (IWAKI, 4860-010) by using a growth medium (10% FBS-containing α-MEM medium (NACALAI TESQUE, INC., 21444-05)) under a condition of 4×10^4 cells/100 μL/well. After culturing under conditions of 37° C. and 5% CO2 overnight, the medium was replaced with a differentiation medium (2% FBS-containing α-MEM medium), followed by culturing for 3 days to differentiate the myoblasts into myotube cells. On the day of evaluation, the medium was replaced with a glucose-deprived medium (0.1% BSA-containing DMEM medium (Gibco, 11966)). After culturing for 4 hours, the medium was replaced with assay media (0.1% BSA-containing DMEM medium (NACALAI TESQUE, INC., 08456-65)) containing 0.6% DMSO and one of the test compounds at a concentration which was twice the final evaluation concentration at 15 μL/well. Further, an assay medium containing D-[U—C14] glucose (PerkinElmer Inc., NEC042V) at […] was added at 15 μL/well to adjust the final volume to 30 μL/well. Then, the cells were incubated under conditions of 37° C. and 5% CO2 for 3 hours. After the incubation, each medium was removed by suction with an aspirator, and the wells were rinsed with PBS at 200 μL/well twice. Then, 1 N NaOH was added at 50 μL/well, and the cells were lysed by incubation at 60° C. for 10 minutes. After the temperature of the lysed cells was returned to room temperature, each whole cell lysate and […] glycogen (Sigma-Aldrich, G8876) at 5 μL/well were added to a Multiscreen HTS (Millipore, MSFCN6B) to which 100% ethanol was added in advance at 100 μL/well, followed by incubation at 4° C. for 20 minutes. After the incubation, aspiration was conducted by using Multiscreen HTS Vacuum Manifold (Millipore), followed by rinse with 66% ethanol at 200 μL/well twice. After ethanol remaining on the filter was completely removed by drying, MicroScint40 (PerkinElmer Inc.) was added at 50 μL/well, the amount of [14C] glycogen was measured with TopCountNXT (PerkinElmer Inc.). The activity of each test compound was calculated by the following method. Specifically, the relative activity (%) was calculated as 100×(B−A)/(C−A), where A represents a value (cpm) measured for a well not containing the compound but containing only DMSO, B represents a value measured for a well containing the compound and DMSO, and C represents a value measured for a well containing the compound of Example 1 of WO/2011/058154 at a final concentration of 30 μM. EC50 representing the concentration of the compound at which an increase in activity by 50% was caused was calculated using XLfit (idbs).
With CSc1cc(F)c(F)cc1-c1ccc(OCc2cccc(C(=O)N(CC(=O)O)Cc3ncco3)c2)cc1 [Example 42, 2-[[3-[[4-(4,5-Difluoro-2-methylsulfanyl-phenyl)phenoxy]methyl]benzoyl]-(oxazol-2-ylmethyl)amino]acetic Acid] the EC50 was 880 nM. CNCCN(CC(=O)O)C(=O)c1cccc(COc2ccc(-c3cc(F)c(F)cc3SC)cc2)c1 [Example 28, 2-[[3-[[4-(4,5-Difluoro-2-methylsulfanyl-phenyl)phenoxy]methyl]benzoyl]-[2-(methylamino)ethyl]amino]acetic Acid Trifluoroacetate] showed an EC50 of less than 300 nM. CSc1cc(F)c(F)cc1-c1ccc(OCc2cccc(C(=O)N(CC(=O)O)CC3CCNCC3)c2)cc1 [Example 35, 2-[[3-[[4-(4,5-Difluoro-2-methylsulfanyl-phenyl)phenoxy]methyl]benzoyl]-(4-piperidylmethyl)amino]acetic Acid Trifluoroacetate] showed an EC50 of 630 nM. In the case of COC[C@H]1CC[C@@H](C(=O)O)N1C(=O)c1cccc(COc2ccc(-c3cc(F)c(F)cc3SC)cc2)c1 [Example 65, (2S,5R)-1-[3-[[4-(4,5-Difluoro-2-methylsulfanyl-phenyl)phenoxy]methyl]benzoyl]-5-(methoxymethyl)pyrrolidine-2-carboxylic Acid], the EC50 is reported as 1800 nM. In the case of CSc1cc(F)c(F)cc1-c1ccc(OCc2cccc(C(=O)N(CC(=O)O)Cc3ccccn3)c2)cc1 [Example 20, 2-[[3-[[4-(4,5-Difluoro-2-methylsulfanyl-phenyl)phenoxy]methyl]benzoyl]-(2-pyridylmethyl)amino]acetic Acid Trifluoroacetate], the EC50 is reported as 710 nM. CSc1cc(F)c(F)cc1-c1ccc(OCc2cccc(C(=O)N(CCN3CCCC3)CC(=O)O)c2)cc1 [Example 40, 2-[[3-[[4-(4,5-Difluoro-2-methylsulfanyl-phenyl)phenoxy]methyl]benzoyl]-(2-pyrrolidin-1-ylethyl)amino]acetic Acid Trifluoroacetate] gave an EC50 of 5400 nM. In the case of COCCN(CC(=O)O)C(=O)c1cccc(COc2ccc(-c3cc(F)c(F)cc3SC)cc2)c1 [Example 6, 2-[[3-[[4-(4,5-Difluoro-2-methylsulfanyl-phenyl)phenoxy]methyl]benzoyl]-(2-methoxyethyl)amino]acetic Acid], the EC50 is reported as 570 nM.
